According to US12624017B2, “Salt form of isoquinolinone type compound as rock inhibitor and preparation method therefor” (GUANGZHOU OCUSUN OPHTHALMIC BIOTECHNOLOGY CO., LTD., priority 2020, dated 2026):

Columns and labels:
Format in all cases: in vivo, New Zealand white rabbits
[1] = Pharmacokinetic test in aqueous humor after eye drops; settings: eye drops 0.5 mg/eye
Text: The compound was a prodrug molecule containing an ester functional group, which can be hydrolyzed into an active drug molecule (parent drug) under the action of abundant ester hydrolase in the eye tissue when administered with eye drops. In this experiment, the production rate of the active pharmaceutical ingredients in vivo and the exposure amount of the active pharmaceutical ingredients were detected.
(§1) Male New Zealand white rabbits, aged 3 to 6 months, weighted 2.0 to 5.0 kg, purchased from Pizhou Oriental Breeding Co., Ltd.
The used solvent was 1.2% hydroxypropyl methylcellulose E5/20.5% poloxamer P407/1.6% poloxamer P188.
The dosage of eye drops was 0.5 mg/eye, administrated in both eyes. Aqueous humor samples were collected at 0.25 h, 0.5 h, 2 h, 4 h, 8 h, and 24 h after administration. All samples were quantitatively detected by liquid chromatography coupled with mass spectrometry-mass spectrometry in the aqueous humor of the experimental animals. The measured concentration values were calculated by WinNonlin non-compartment model according to the concentration-time data of aqueous humor, such as half-life, peak concentration, peak time, unit exposure amount of aqueous humor, etc.

[2] = test system: New Zealand rabbits suffered with acute intraocular hypertension; test: Intraocular pressure reduction test in acute intraocular hypertension model; settings: for Intraocular pressure in left eye: left eye (solvent only); for Intraocular pressure in right eye: 50 μL, right eye (modelled, dosed)
Text: Acute intraocular hypertension was induced for rabbits by injection of a viscoelastic agent into the anterior chamber, and the effects of ocular pressure reduction of the compound of formula (I) were inspected by administration of eye drops at different concentrations.
Male New Zealand white rabbits, aged 97 to 127 days, weighted 2.5 to 3.4 kg, purchased from Pizhou Oriental Breeding Co., Ltd.
50 male New Zealand white rabbits were randomly divided into 5 groups according to body weight, 10 rabbits/group. The anterior chambers of the right eyes of animals in Groups 1 to 5 were injected with medical sodium hyaluronate gel in a single dose, 100 μL/eye, to induce ocular hypertension in the animals. In 5 to 15 min after molding, the right eye was administrated dropwise with the solvent, K-115, and the test article (compounds of formula (I) of different concentrations), and the left eye was administrated dropwise with the solvent, 50 μL/eye; and the intraocular pressures of the animals in both eyes were measured before administration, as well as at 2, 4, 6, 8, and 10 h after administration, respectively.

[3] = Toxicokinetic test: active compound in plasma after 14 days of eye drops; settings: for Concentration of active compound in plasma: 8.0 mg/ml eye drops, after 14 days of consecutive administration
Procedure: The rate of production of active pharmaceutical ingredients in plasma and exposure amount of the active pharmaceutical ingredients were detected after 14 days.
as §1
After 14 days of consecutive administration, blood samples were collected at 0 hours (before administration) and at 0.5, 1, 2, 4, 8 and 24 hours after administration in the group of compound of formula (I) (8.0 mg/ml) at 14-15 days. Approximately 0.8 mL of whole blood was collected from the ear artery or the hindlimb saphenous vein (or other suitable site) of animal subjected to the toxicokinetic test and placed in a labeled blood collection tube with dipotassium EDTA (K2EDTA) as an anticoagulant. Plasma was obtained by centrifugation at 3000 rpm and 2° C. to 8° C. for 10 min within 60 minutes after blood collection. All samples were quantitatively detected for the content of the administrated compound in the plasma of the experimental animal by a liquid chromatography-mass spectrometry coupling technology.

[4] = test system: New Zealand rabbits with normal intraocular pressure; test: Intraocular pressure reduction, normal intraocular pressure, Day 1 (Operation II); settings: for Average intraocular pressure in both eyes: Day 1
Text: An intraocular pressure reduction effect and potential ocular toxicity of the compound of formula (I) were inspected with rabbits with normal intraocular pressure by repeated administration of eye drops for 14 days.
Male New Zealand white rabbits, aged 97 to 127 days, weighted 2.6-3.5 kg, purchased from Pizhou Oriental Breeding Co., Ltd.
42 male New Zealand white rabbits were randomly grouped into 7 groups according to body weights, 6 rabbits/group. Among the animals in Groups 1-7, the left eye was administrated dropwise with normal saline, and the right eye was administrated dropwise with a solvent/control/test article in an administration volume of 50 μL/eye respectively, once a day for 14 consecutive days, and the day of first administration was recorded as Day 1. The intraocular pressures of the animals were measured before administration on Day 1, as well as at 1 h, 2 h, 4 h, 6 h, 8 h and 10 h after administration on Day 1 (Table 10).

Cc1ccc(C(=O)OCn2cc(C)c3c(S(=O)(=O)N4CC[C@H](N)C4)cccc3c2=O)c(C)c1 [Compound of formula (I)]
Exposure amount of the active drug (conclusion) [1]: significantly increased | Intraocular pressure in left eye ([2]; 0.25 mg/mL group, 2 h after administration): 6.07 mmHg | Intraocular pressure in left eye ([2]; 0.25 mg/mL group, 4 h after administration): 6.60 mmHg | Intraocular pressure in left eye ([2]; 0.25 mg/mL group, 6 h after administration): 9.10 mmHg | Intraocular pressure in left eye ([2]; 0.25 mg/mL group, 8 h after administration): 11.50 mmHg | Intraocular pressure in left eye ([2]; 0.25 mg/mL group, 10 h after administration): 12.43 mmHg | Intraocular pressure in left eye ([2]; 0.25 mg/mL group, before administration): 10.53 mmHg | Intraocular pressure in right eye ([2]; 0.25 mg/mL, 2 h after administration): 8.47 mmHg | Intraocular pressure in right eye ([2]; 0.25 mg/mL, 4 h after administration): 8.60 mmHg | Intraocular pressure in right eye ([2]; 0.25 mg/mL, 6 h after administration): 11.20 mmHg | Intraocular pressure in right eye ([2]; 0.25 mg/mL, 8 h after administration): 13.37 mmHg | Intraocular pressure in right eye ([2]; 0.25 mg/mL, 10 h after administration): 13.10 mmHg | Intraocular pressure in right eye ([2]; 0.25 mg/mL, before administration): 11.43 mmHg | Intraocular pressure in left eye ([2]; 2.0 mg/mL group, 2 h after administration): 6.60 mmHg | Intraocular pressure in left eye ([2]; 2.0 mg/mL group, 4 h after administration): 7.04 mmHg | Intraocular pressure in left eye ([2]; 2.0 mg/mL group, 6 h after administration): 11.23 mmHg | Intraocular pressure in left eye ([2]; 2.0 mg/mL group, 8 h after administration): 12.84 mmHg | Intraocular pressure in left eye ([2]; 2.0 mg/mL group, 10 h after administration): 13.10 mmHg | Intraocular pressure in left eye ([2]; 2.0 mg/mL group, before administration): 11.27 mmHg | Intraocular pressure in right eye ([2]; 2.0 mg/mL, 2 h after administration): 8.52 mmHg | Intraocular pressure in right eye ([2]; 2.0 mg/mL, 4 h after administration): 11.56 mmHg | Intraocular pressure in right eye ([2]; 2.0 mg/mL, 6 h after administration): 13.81 mmHg | Intraocular pressure in right eye ([2]; 2.0 mg/mL, 8 h after administration): 12.96 mmHg | Intraocular pressure in right eye ([2]; 2.0 mg/mL, 10 h after administration): 11.96 mmHg | Intraocular pressure in right eye ([2]; 2.0 mg/mL, before administration): 11.23 mmHg | Intraocular pressure in left eye ([2]; 8.0 mg/mL group, 2 h after administration): 5.93 mmHg | Intraocular pressure in left eye ([2]; 8.0 mg/mL group, 4 h after administration): 6.43 mmHg | Intraocular pressure in left eye ([2]; 8.0 mg/mL group, 6 h after administration): 10.10 mmHg | Intraocular pressure in left eye ([2]; 8.0 mg/mL group, 8 h after administration): 11.87 mmHg | Intraocular pressure in left eye ([2]; 8.0 mg/mL group, 10 h after administration): 13.19 mmHg | Intraocular pressure in left eye ([2]; 8.0 mg/mL group, before administration): 11.20 mmHg | Intraocular pressure in right eye ([2]; 8.0 mg/mL, 2 h after administration): 7.40 mmHg | Intraocular pressure in right eye ([2]; 8.0 mg/mL, 4 h after administration): 7.97 mmHg | Intraocular pressure in right eye ([2]; 8.0 mg/mL, 6 h after administration): 8.84 mmHg | Intraocular pressure in right eye ([2]; 8.0 mg/mL, 8 h after administration): 8.60 mmHg | Intraocular pressure in right eye ([2]; 8.0 mg/mL, 10 h after administration): 8.78 mmHg | Intraocular pressure in right eye ([2]; 8.0 mg/mL, before administration): 11.53 mmHg | Intraocular pressure reduction effect (conclusion) ([2]; at different test doses (0.25, 2.0, 8.0 mg/mL), amplitude and sustained effect better than K-115): good intraocular pressure reduction effects | Concentration of active compound in plasma ([3]; Group 1, 0.00 h (before administration)): BQL | Concentration of active compound in plasma ([3]; Group 1, 8.00 h): BQL | Concentration of active compound in plasma ([3]; Group 1, 8.00 h, listed as compound of formula (I)): below the detection limit | Concentration of active compound in plasma ([3]; Group 1, 24.0 h): BQL | Concentration of active compound in plasma ([3]; Group 2, 0.00 h (before administration)): BQL | Concentration of active compound in plasma ([3]; Group 2, 8.00 h): BQL | Concentration of active compound in plasma ([3]; Group 2, 24.0 h): BQL | System safety (conclusion) ([3]; high dose of 8 mg/mL, from plasma metabolite concentration): high system safety | Average intraocular pressure in both eyes ([4]; 0.25 mg/mL in right eye, 1 h after administration): 6.22 mmHg | Average intraocular pressure in both eyes ([4]; 0.25 mg/mL in right eye, 2 h after administration): 6.17 mmHg | Average intraocular pressure in both eyes ([4]; 0.25 mg/mL in right eye, 4 h after administration): 6.67 mmHg | Average intraocular pressure in both eyes ([4]; 0.25 mg/mL in right eye, 6 h after administration): 8.06 mmHg | Average intraocular pressure in both eyes ([4]; 0.25 mg/mL in right eye, 8 h after administration): 9.72 mmHg | Average intraocular pressure in both eyes ([4]; 0.25 mg/mL in right eye, 10 h after administration): 10.95 mmHg | Average intraocular pressure in both eyes ([4]; 0.25 mg/mL in right eye, before administration): 9.84 mmHg | Average intraocular pressure in both eyes ([4]; 0.5 mg/mL in right eye, 1 h after administration): 5.39 mmHg | Average intraocular pressure in both eyes ([4]; 0.5 mg/mL in right eye, 2 h after administration): 5.50 mmHg | Average intraocular pressure in both eyes ([4]; 0.5 mg/mL in right eye, 4 h after administration): 6.95 mmHg | Average intraocular pressure in both eyes ([4]; 0.5 mg/mL in right eye, 6 h after administration): 8.94 mmHg | Average intraocular pressure in both eyes ([4]; 0.5 mg/mL in right eye, 8 h after administration): 9.89 mmHg | Average intraocular pressure in both eyes ([4]; 0.5 mg/mL in right eye, 10 h after administration): 11.56 mmHg | Average intraocular pressure in both eyes ([4]; 0.5 mg/mL in right eye, before administration): 9.22 mmHg | Average intraocular pressure in both eyes ([4]; 1.0 mg/mL in right eye, 1 h after administration): 5.56 mmHg | Average intraocular pressure in both eyes ([4]; 1.0 mg/mL in right eye, 2 h after administration): 5.39 mmHg | Average intraocular pressure in both eyes ([4]; 1.0 mg/mL in right eye, 4 h after administration): 6.67 mmHg | Average intraocular pressure in both eyes ([4]; 1.0 mg/mL in right eye, 6 h after administration): 7.33 mmHg | Average intraocular pressure in both eyes ([4]; 1.0 mg/mL in right eye, 8 h after administration): 10.50 mmHg | Average intraocular pressure in both eyes ([4]; 1.0 mg/mL in right eye, 10 h after administration): 10.89 mmHg | Average intraocular pressure in both eyes ([4]; 1.0 mg/mL in right eye, before administration): 9.17 mmHg | Average intraocular pressure in both eyes ([4]; 2.0 mg/mL in right eye, 1 h after administration): 8.11 mmHg | Average intraocular pressure in both eyes ([4]; 2.0 mg/mL in right eye, 2 h after administration): 5.84 mmHg | Average intraocular pressure in both eyes ([4]; 2.0 mg/mL in right eye, 4 h after administration): 6.06 mmHg | Average intraocular pressure in both eyes ([4]; 2.0 mg/mL in right eye, 6 h after administration): 7.11 mmHg | Average intraocular pressure in both eyes ([4]; 2.0 mg/mL in right eye, 8 h after administration): 9.00 mmHg | Average intraocular pressure in both eyes ([4]; 2.0 mg/mL in right eye, 10 h after administration): 10.05 mmHg | Average intraocular pressure in both eyes ([4]; 2.0 mg/mL in right eye, before administration): 9.72 mmHg | Average intraocular pressure in both eyes ([4]; 4.0 mg/mL in right eye, 1 h after administration): 6.61 mmHg | Average intraocular pressure in both eyes ([4]; 4.0 mg/mL in right eye, 2 h after administration): 5.84 mmHg | Average intraocular pressure in both eyes ([4]; 4.0 mg/mL in right eye, 4 h after administration): 5.72 mmHg | Average intraocular pressure in both eyes ([4]; 4.0 mg/mL in right eye, 6 h after administration): 6.61 mmHg | Average intraocular pressure in both eyes ([4]; 4.0 mg/mL in right eye, 8 h after administration): 8.39 mmHg | Average intraocular pressure in both eyes ([4]; 4.0 mg/mL in right eye, 10 h after administration): 10.67 mmHg | Average intraocular pressure in both eyes ([4]; 4.0 mg/mL in right eye, before administration): 10.00 mmHg | Efficacy of single administration (conclusion) ([4]; all tested doses (0.25 to 4.0 mg/mL), compared with K-115): better efficacy
